In patent US10993957B2 (NuCana plc, priority 2011, dated 2021):
Like-named read-outs stand apart in the source and are kept apart here.

Tests used:
L1210/0 = assay: Cytostatic assay, L1210/0 cells; type: cell-based, murine; details: for IC50: read-out: IC50 L1210/0
Description: (§1) The cell lines employed were L1210/0 (a leukemia cell line), FM3A/0 (a breast cancer cell line), Cem/0 (an acute lymphoblastic leukemia cell line) and HeLa (a cervical cell line).

L1210/TK^− = assay: Cytostatic assay, thymidine kinase-deficient L1210/TK^− cells; type: cell-based, murine; details: for IC50: Table 6, read-out: IC50 L1210/TK^−; for CC50: L1210, Table 1, read-out: CC50 L1210/TK^−
Cem/0 = assay: Cytostatic assay, CEM/0 cells; type: cell-based, human; details: for IC50: Table 6, read-out: IC50 Cem/0; for CC50: Table 1, read-out: CC50 Cem/0
Description: as §1

Cem/TK^− = assay: Cytostatic assay, thymidine kinase-deficient CEM/TK^− cells; type: cell-based, human; details: for IC50: Table 6, read-out: IC50 Cem/TK^−; for CC50: Table 1, read-out: CC50 Cem/TK^−
HeLa = assay: Cytostatic assay, HeLa cells; type: cell-based; details: for IC50: Table 6, read-out: IC50 HeLa; for CC50: Table 1, read-out: CC50 HeLa
Description: as §1

HeLa/TK^− = assay: Cytostatic assay, HeLa/TK^− cells; type: cell-based; details: for IC50: Table 6, read-out: IC50 HeLa/TK^−; for CC50: Table 1, read-out: CC50 HeLa/TK^−
Description: as §1

L1210.Hyor = assay: Cytostatic assay, Mycoplasma hyorhinis-infected L1210 cells; details: for % Retention: CC50 L1210 × 100 ÷ CC50 L1210/Hyor
Description: Murine leukaemia L1210/0 and human T-lymphocyte CEM/0 cells were obtained from the American Type Culture Collection (ATCC) (Rockville, Md.). Human glioblastoma U87 cells were kindly provided by Dr. E. Menue (Institut Pasteur, Paris, France). […] S. Eriksson (currently at Uppsala University, Uppsala, Sweden) and Prof A. Karlsson (Karolinska Institute, Stockholm, Sweden). […] All cells were maintained in Dulbecco's modified Eagle's medium (DMEM) (Invitrogen, Carlsbad, Calif.) with 10% foetal bovine serum (FBS) (Biochrom AG, Berlin, Germany), 10 mM Hepes and 1 mM Sodium Pyruvate (Invitrogen). Cells were grown at 37° C. in a humidified incubator with a gas phase of 5% CO2.
Monolayer cells (U87 and U87.Hyor) were seeded in 48-well microtiter plates (Nunc™, Roskilde, Denmark) at 10,000 cells/well. After 24 hours, an equal volume of fresh medium containing the test compounds was added. On day 5, cells were trypsinized and counted in a Coulter counter (Analis, Suarlée, Belgium). Suspension cells (L1210/0, L1210/TK^−, L1210.Hyor, CEM/0, CEM/TK^−) were seeded in 96-well microtiter plates (Nunc™) at 60,000 cells/well in the presence of a given amount of the test compounds. The cells were allowed to proliferate for 48 h (L1210) or 72 hours (CEM) and were then counted in a Coulter counter.
Samples were also assayed for their % retention of activity in mycoplasma infected cells.
The L1210/0 cell cultures were infected with the mycoplasma species M. hyorhinis (cells designated: L1210.Hyor).

[1] = read-out: IC50 L1210.Hyor, Table 7
[2] = Mus musculus, L1210, read-out: IC50 L1210.Hyor
[3] = Mus musculus, L1210/0, Table 1, read-out: CC50 L1210/0

| Compound | IC50 (L1210/0; Table 6) [nM] | IC50 (L1210/0; Table 7) [nM] | IC50 (L1210/TK^−) [nM] | IC50 (Cem/0) [nM] | IC50 (Cem/TK^−) [nM] | IC50 (HeLa) [nM] | IC50 (HeLa/TK^−) [nM] | IC50(L1210.Hyor)/IC50(L1210/0) (L1210.Hyor; Table 7) | IC50 (L1210.Hyor; [1]) [nM] | CC50 (L1210/0; [3]) [nM] | CC50 (L1210/TK^−; Mus musculus) [nM] | CC50 (Cem/0; Homo sapiens, CCRF-CEM) [nM] | CC50 (Cem/TK^−; Homo sapiens, CEM-TK(-)) [nM] | CC50 (HeLa; Homo sapiens, HeLa) [nM] | CC50 (HeLa/TK^−; Homo sapiens, HeLa) [nM] | also measured |
| --- | --- | --- | --- | --- | --- | --- | --- | --- | --- | --- | --- | --- | --- | --- | --- | --- |
| CCCCCOC(=O)C(C)(C)NP(=O)(OCC1OC(n2cc(F)c(=O)[nH]c2=O)CC1O)Oc1cccc2ccccc12 (stereo not drawn) [Nap Pnt DMG] | 37 ± 10 | 45 ± 2.1 | 300 ± 130 | 140 | 5400 ± 1100 | 120 ± 30 | 2300 ± 100 | 0.42 | 19 ± 2.8 |  |  |  |  |  |  |  |
| CC(C)C(NP(=O)(OCC1OC(n2cc(F)c(=O)[nH]c2=O)CC1O)Oc1cccc2ccccc12)C(=O)OC1CCCCC1 (stereo not drawn) [CPF 576] | 1100 ± 500 | 1200 ± 170 | 35000 ± 8000 | 800 ± 280 | 46000 ± 14000 | 670 ± 30 | 27000 ± 6000 | 1.08 | 1290 ± 290 |  |  |  |  |  |  | CC50 (L1210/0; Table 2, mycoplasma negative cells, read-out: CC50 L1210): 1400 nM; % Retention (L1210.Hyor): 51%; CC50 (L1210.Hyor; read-out: CC50 L1210/Hyor, Table 2, mycoplasma positive cells): 2730 nM |
| C[C@H](NP(=O)(OC[C@H]1O[C@@H](n2cc(F)c(=O)[nH]c2=O)CC1O)Oc1cccc2ccccc12)C(=O)OC1Cc2ccccc2C1 (stereo partly drawn) [CPF597, 5-Fluoro-2′-deoxyuridine-5′-O-[1-naphthyl-(2-indanoxy-L-alaninyl)]phosphate] |  |  |  |  |  |  |  | 1.08 |  |  |  |  |  |  |  | IC50 (L1210/0; Mus musculus, L1210/0, Table 6): 21 ± 2 nM; IC50 (L1210/0; Mus musculus, L1210/0, Table 7): 39 ± 19 nM; IC50 (L1210/TK^−; Mus musculus, L1210): 40000 nM; IC50 (Cem/0; Homo sapiens, CCRF-CEM): 79 ± 18 nM; IC50 (Cem/TK^−; Homo sapiens, CEM-TK(-)): 1000 ± 200 nM; IC50 (HeLa; Homo sapiens, HeLa): 100 ± 60 nM; IC50 (HeLa/TK^−; Homo sapiens, HeLa): 7100 ± 2100 nM; IC50 (L1210.Hyor; [2]): 42 ± 40 nM |
| CCOC(=O)C(NP(=O)(OCC1OC(n2cc(F)c(=O)[nH]c2=O)CC1O)Oc1ccccc1)C(C)C (stereo not drawn) [Ph Et Val] | 160 ± 50 | 200 ± 33 | 42000 ± 2000 | 1000 ± 100 | > 250000 | 1200 ± 300 | 27000 ± 7000 | 22 | 4400 ± 1100 |  |  |  |  |  |  |  |
| CCCCCCOC(=O)C(C)NP(=O)(OCC1OC(n2cc(F)c(=O)[nH]c2=O)CC1O)Oc1cccc2ccccc12 (stereo not drawn) [Nap Hex Ala] | 7.2 | 3.2 ± 0.35 | 76 ± 15 | 80 ± 20 | 650 ± 340 | 39 ± 18 | 1800 ± 100 | 0.69 | 2.2 ± 0.28 |  |  |  |  |  |  |  |
| O=C(OCc1ccccc1)[C@H](Cc1ccccc1)NP(=O)(OC[C@H]1O[C@@H](n2cc(F)c(=O)[nH]c2=O)CC1O)Oc1cccc2ccccc12 (stereo partly drawn) [CPF 587, 5-Fluoro-2′-deoxyuridine-5′-O-[1-naphthyl-(benzoxy-L-phenylalaninyl)]phosphate] |  |  |  |  |  |  |  | 11 |  | 12 ± 7 | 5600 ± 1300 | 100 ± 30 | 7200 ± 100 | 160 ± 80 | 6800 ± 1500 | CC50 (L1210/0; Mus musculus, L1210/0, Table 2, mycoplasma negative cells, read-out: CC50 L1210): 22 nM; IC50 (L1210/0; Mus musculus, L1210/0, Table 6): 12 ± 7 nM; IC50 (L1210/0; Mus musculus, L1210/0, Table 7): 21 ± 6.1 nM; IC50 (L1210/TK^−; Mus musculus, L1210): 5600 ± 1300 nM; IC50 (Cem/0; Homo sapiens, CCRF-CEM): 100 ± 30 nM; IC50 (Cem/TK^−; Homo sapiens, CEM-TK(-)): 7200 ± 100 nM; IC50 (HeLa; Homo sapiens, HeLa): 160 ± 80 nM; IC50 (HeLa/TK^−; Homo sapiens, HeLa): 6800 ± 1500 nM; % Retention (L1210.Hyor): 0.5%; CC50 (L1210.Hyor; Mus musculus, L1210, read-out: CC50 L1210/Hyor): 4200 nM; IC50 (L1210.Hyor; [2]): 230 ± 78 nM |
| CCOC(=O)[C@H](C)NP(=O)(O)OCC1OC(n2cc(F)c(=O)[nH]c2=O)CC1O (stereo partly drawn) [CPF 437, reference compound] |  |  |  |  |  |  |  |  |  | 36000 ± 5000 | > 100000 | > 100000 | > 100000 | > 100000 | > 100000 |  |
| CC(C)OC(=O)[C@H](C)NP(=O)(O)OCC1OC(n2cc(F)c(=O)[nH]c2=O)CC1O (stereo partly drawn) [CPF 438, reference compound] |  |  |  |  |  |  |  |  |  | 120 ± 20 | 51000 ± 9000 | 2100 ± 600 | 32000 ± 2000 | 3700 ± 500 | 72000 |  |
